In one assay the test system is VCaP cells. The experiment in a line: Cellular growth inhibition assay for VCaP cells, CellTiter-Glo. Type of assay: cell-based, human. The conditions noted are these: 72 hours. Put shortly:
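GI50 values come from four-parameter curve fits of luminescence data normalized to a zero baseline. Compound, in medium with 0.5% DMSO, was added one day after plating and left for 72 h before CellTiter-Glo 2.0 addition.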

In assay [1] the test system is T-Rex 293 cell line SC3 cells lacking increased expression of androgen receptor protein. The experiment in a line: Cellular growth inhibition, T-Rex 293 SC3 cells without doxycycline (no increased androgen receptor expression), CellTiter-Glo. Type of assay: cell-based. Conditions: T-Rex 293 SC3 cells not exposed to doxycycline (no increased androgen receptor expression), 72 hours. Put shortly:
(§1)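 Growth inhibition is measured in an inducible AR-expressing T-Rex 293 clone, SC3, cultured with or without 10 ng/mL doxycycline in hormone-depleted medium. Test compounds are applied for 72 hours. GI50 values derive from CellTiter-Glo 2.0 signal fitted by four-parameter regression.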
(In general: In ATP-based viability assays light output follows the ATP content of the culture.)

For a further assay, the system named is T47D cells. Nature of the assay: Cellular Growth Inhibition Assay for T47D Cells (CellTiter-Glo). It counts as cell-based, human. Conditions: 72 hours. Put shortly: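 GI50 values derive from four-parameter regression of CellTiter-Glo 2.0 luminescence, using zero luminescence as baseline. Human breast cancer T47D cells (3000/well; DMEM, 10% FBS, 0.2 units/mL insulin) were exposed for 72 h to compound dilutions at 0.5% DMSO, with dosing starting 24 h after seeding.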

The test system of assay [2] is T-Rex 293 cell line SC3 cells having increased expression of androgen receptor protein due to exposure to doxycycline. The experiment in a line: Cellular growth inhibition, T-Rex 293 SC3 cells with doxycycline (increased androgen receptor expression), CellTiter-Glo. Type of assay: cell-based. The conditions noted are these: T-Rex 293 SC3 cells with 10 ng/mL doxycycline (increased androgen receptor expression), 72 hours, CellTiter-Glo 2.0. Put shortly:
as §1

Where only a bound is given, the exact number is not on record here.

Consider `Cn1cc(-c2ccccc2Oc2cccc(OCCC3CCN(c4ncc(C(=O)N[C@H]5C(C)(C)[C@H](Oc6ccc(C#N)c(Cl)c6)C5(C)C)cn4)CC3)c2)c2cc[nH]c2c1=O` [Compound I-102], for which the GI50 with VCaP cells (Homo sapiens) was less than 500 nM; in assay [1], 500 to 1500 nM; in the assay with T47D cells (Homo sapiens), 1500 to 3000 nM; in assay [2], less than 500 nM.
Consider `CC(=O)N(C)c1ccc(Oc2cccc(OCCOC3CCN(c4ncc(C(=O)N[C@H]5C(C)(C)[C@H](Oc6ccc(C#N)c(Cl)c6)C5(C)C)cn4)CC3)c2)c(-c2cn(C)c(=O)c3[nH]ccc23)c1` [Compound I-58], for which the GI50 in the assay with VCaP cells (Homo sapiens) is less than 500 nM; in assay [1] it was more than 3000 nM; with T47D cells (Homo sapiens) it was 500 to 1500 nM; in assay [2], less than 500 nM.
On to `Cn1cc(-c2cc(C(C)(C)O)ccc2Oc2ccc(CCC3CCN(c4ncc(C(=O)N[C@H]5C(C)(C)[C@H](Oc6ccc(C#N)c(Cl)c6)C5(C)C)cn4)CC3)nc2)c2cc[nH]c2c1=O` [Compound I-302], for which the concentration for 50% growth inhibition (GI50) is less than 500 nM in the assay on VCaP cells, 500 to 1500 nM in assay [1], 500 to 1500 nM with T47D cells and less than 500 nM in assay [2].
As to `CCS(=O)(=O)Nc1ccc(Oc2cccc(OC3CCN(c4ncc(C(=O)N[C@H]5C(C)(C)[C@H](Oc6ccc(C#N)c(Cl)c6)C5(C)C)cn4)CC3)c2)c(-c2cn(C)c(=O)c3[nH]ccc23)c1` [Compound I-24], the GI50 (with VCaP cells (Homo sapiens); in assay [1]; in the assay on T47D cells (Homo sapiens); in assay [2]) was less than 500 nM each time.
Regarding `CCS(=O)(=O)Nc1ccc(Oc2cccc(OC3CN(c4ncc(C(=O)N[C@H]5C(C)(C)[C@H](Oc6ccc(C#N)c(Cl)c6)C5(C)C)cn4)C3)c2)c(-c2cn(C)c(=O)c3[nH]ccc23)c1` [Compound I-30], the GI50 (in the assay with VCaP cells (Homo sapiens); in assay [1]; with T47D cells (Homo sapiens); in assay [2]) was less than 500 nM throughout.
On to `Cn1cc(-c2cc(C(C)(C)O)ccc2Oc2ccc(N3CC(CC4CN(C5CCC(C(=O)N[C@H]6C(C)(C)[C@H](Oc7ccc(C#N)c(Cl)c7)C6(C)C)CC5)C4)C3)cc2)c2cc[nH]c2c1=O` (stereo partly drawn) [Compound I-313], for which the GI50 with VCaP cells (Homo sapiens) is less than 500 nM; in assay [1], 500 to 1500 nM; in the assay on T47D cells (Homo sapiens), less than 500 nM; in assay [2], 500 to 1500 nM.
For the molecule `CCS(=O)(=O)c1ccc(OCC(CCOC2CCN(c3ncc(C(=O)N[C@H]4C(C)(C)[C@H](Oc5ccc(C#N)c(Cl)c5)C4(C)C)cn3)CC2)C2CC2)c(-c2cn(C)c(=O)c3[nH]ccc23)c1` (stereo partly drawn) [Compound I-242], the GI50 (with VCaP cells; in assay [1]; in the assay with T47D cells; in assay [2]) was less than 500 nM each time.
Take `CC(C)c1ccc(Oc2cccc(OCCN3CCN(c4ncc(C(=O)N[C@H]5C(C)(C)[C@H](Oc6ccc(C#N)c(Cl)c6)C5(C)C)cn4)CC3)c2F)c(-c2cn(C)c(=O)c3[nH]ccc23)c1` [Compound I-179]: the GI50 in the assay on VCaP cells is more than 3000 nM; in assay [1] it was more than 3000 nM; in the assay on T47D cells, 500 to 1500 nM; in assay [2], less than 500 nM.
With `CN(C1CCN(c2ncc(C(=O)N[C@H]3C(C)(C)[C@H](Oc4ccc(C#N)c(Cl)c4)C3(C)C)cn2)CC1)C1CN(c2cccc(Oc3ccc(C(C)(C)O)cc3-c3cn(C)c(=O)c4[nH]ccc34)c2F)C1` [Compound I-230], the GI50 is less than 500 nM with VCaP cells, 500 to 1500 nM in assay [1], less than 500 nM in the assay with T47D cells and less than 500 nM in assay [2].
With `Cn1cc(-c2cc(C(C)(C)O)ccc2Oc2cccc(OC3CCC4(CC3)CCN(c3ncc(C(=O)N[C@H]5C(C)(C)[C@H](Oc6ccc(C#N)c(Cl)c6)C5(C)C)cn3)CC4)c2)c2cc[nH]c2c1=O` [Compound I-314], the GI50 is less than 500 nM in the assay with VCaP cells, more than 3000 nM in assay [1], 500 to 1500 nM in the assay on T47D cells and less than 500 nM in assay [2].
Turning to `Cn1cc(-c2cc(C(C)(C)O)ccc2Oc2ccc(C(C)(C)N3CC4(CN(c5ncc(C(=O)N[C@H]6C(C)(C)[C@H](Oc7ccc(C#N)c(Cl)c7)C6(C)C)cn5)CCO4)C3)cc2)c2cc[nH]c2c1=O` [Compound I-312], the GI50 is less than 500 nM in the assay on VCaP cells, 500 to 1500 nM in assay [1], 500 to 1500 nM in the assay with T47D cells and less than 500 nM in assay [2].
In the case of `Cn1cc(-c2ccccc2Oc2cccc(OCCC3CCN(c4ncc(C(=O)N[C@H]5C(C)(C)[C@H](Oc6ccc(C#N)c(Cl)c6)C5(C)C)cn4)CC3)c2F)c2cc[nH]c2c1=O` [Compound I-117], the GI50 in the assay on VCaP cells is less than 500 nM; in assay [1], more than 3000 nM; in the assay with T47D cells, 500 to 1500 nM; in assay [2], less than 500 nM.
As to `CCS(=O)(=O)Nc1ccc(Oc2cccc(N3CCC(N(C)C4CCN(c5ncc(C(=O)N[C@H]6C(C)(C)[C@H](Oc7ccc(C#N)c(Cl)c7)C6(C)C)cn5)CC4)C3)c2)c(-c2cn(C)c(=O)c3[nH]ccc23)c1` (stereo partly drawn) [Compound I-41], the GI50 in the assay with VCaP cells (Homo sapiens) is less than 500 nM; in assay [1], 500 to 1500 nM; in the assay with T47D cells (Homo sapiens), less than 500 nM; in assay [2] it was less than 500 nM.
Turning to `Cn1cc(-c2cc(C(C)(C)O)ccc2OCC2(C(=O)N3CC(OC4CCN(c5ncc(C(=O)N[C@H]6C(C)(C)[C@H](Oc7ccc(C#N)c(Cl)c7)C6(C)C)cn5)CC4)C3)CC2)c2cc[nH]c2c1=O` [Compound I-267], the GI50 with VCaP cells was less than 500 nM; in assay [1], 500 to 1500 nM; in the assay on T47D cells, 500 to 1500 nM; in assay [2], less than 500 nM.
Turning to `CCS(=O)(=O)Nc1ccc(Oc2cccc(N3CCC(OC4CCN(c5ncc(C(=O)N[C@H]6C(C)(C)[C@H](Oc7ccc(C#N)c(Cl)c7)C6(C)C)cn5)CC4)C3)c2)c(-c2cn(C)c(=O)c3[nH]ccc23)c1` (stereo partly drawn) [Compound I-81], the GI50 with VCaP cells (Homo sapiens) was less than 500 nM; in assay [1], more than 3000 nM; in the assay with T47D cells (Homo sapiens), less than 500 nM; in assay [2], less than 500 nM.
As for `Cn1cc(-c2cc(C(C)(C)O)ccc2Oc2ccc(N3CC(CC4CCN(c5cnc(C(=O)N[C@H]6C(C)(C)[C@H](Oc7ccc(C#N)c(Cl)c7)C6(C)C)cn5)CC4)C3)cn2)c2cc[nH]c2c1=O` [Compound I-346], the GI50 was less than 500 nM in the assay with VCaP cells (Homo sapiens), more than 3000 nM in assay [1], less than 500 nM in the assay with T47D cells (Homo sapiens) and less than 500 nM in assay [2].
Regarding `Cn1cc(-c2cc(C(C)(C)O)ccc2Oc2ccc(CCCC3CN(c4ncc(C(=O)N[C@H]5C(C)(C)[C@H](Oc6ccc(C#N)c(Cl)c6)C5(C)C)cn4)CCO3)cc2)c2cc[nH]c2c1=O` (stereo partly drawn) [Compound I-307], the concentration for 50% growth inhibition (GI50) in the assay with VCaP cells is less than 500 nM; in assay [1] it was more than 3000 nM; with T47D cells, less than 500 nM; in assay [2], less than 500 nM.
In the case of `CCS(=O)(=O)Nc1ccc(Oc2cccc(C3CN(C4CCN(c5ncc(C(=O)N[C@H]6C(C)(C)[C@H](Oc7ccc(C#N)c(Cl)c7)C6(C)C)cn5)CC4)C3)c2)c(-c2cn(C)c(=O)c3[nH]ccc23)c1` [Compound I-76], the GI50 is less than 500 nM in the assay with VCaP cells (Homo sapiens), 1500 to 3000 nM in assay [1], less than 500 nM in the assay on T47D cells (Homo sapiens) and less than 500 nM in assay [2].
Turning to `Cn1cc(-c2cc(C(C)(C)O)ccc2Oc2cccc(N3CC(CN4CC5CC4CN5c4ncc(C(=O)N[C@H]5C(C)(C)[C@H](Oc6ccc(C#N)c(Cl)c6)C5(C)C)cn4)C3)c2F)c2cc[nH]c2c1=O` (stereo partly drawn) [Compound I-241], the concentration for 50% growth inhibition (GI50) (in the assay on VCaP cells; in assay [1]; in the assay on T47D cells; in assay [2]) was less than 500 nM throughout.
In the case of `CCS(=O)(=O)c1ccc(Oc2ccc(CN3CC4(C3)CN(c3ncc(C(=O)N[C@H]5C(C)(C)[C@H](Oc6ccc(C#N)c(Cl)c6)C5(C)C)cn3)CCO4)cc2)c(-c2cn(C)c(=O)c3[nH]ccc23)c1` [Compound I-261], the GI50 (in the assay with VCaP cells; in assay [1]; in the assay on T47D cells; in assay [2]) was less than 500 nM in each case.
For the molecule `CCS(=O)(=O)c1ccc(Oc2ccc(CN3CC4(CCN(c5ncc(C(=O)N[C@H]6C(C)(C)[C@H](Oc7ccc(C#N)c(Cl)c7)C6(C)C)cn5)CC4)C3)c(F)c2)c(-c2cn(C)c(=O)c3[nH]ccc23)c1` [Compound I-275], the GI50 (in the assay with VCaP cells (Homo sapiens); in assay [1]; in the assay with T47D cells (Homo sapiens); in assay [2]) was less than 500 nM in each case.
Regarding `Cn1cc(-c2ccccc2Oc2cccc(CCCN3CCN(c4ncc(C(=O)NC5C(C)(C)C(Oc6ccc(C#N)c(Cl)c6)C5(C)C)cn4)CC3)c2)c2cc[nH]c2c1=O` (stereo not drawn) [Compound I-134, N-[3-(3-chloro-4-cyano-phenoxy)-2,2,4,4-tetramethyl-cyclobutyl]-2-[4-[3-[3-[2-(6-methyl-7-oxo-1H-pyrrolo[2,3-c]pyridin-4-yl)phenoxy]phenyl]propyl]piperazin-1-yl]pyrimidine-5-carboxamide], the GI50 with VCaP cells (Homo sapiens) is less than 500 nM; in assay [1], 500 to 1500 nM; in the assay with T47D cells (Homo sapiens), 500 to 1500 nM; in assay [2] it was less than 500 nM.
As for `CCS(=O)(=O)c1ccc(OC(CCCCCN2CCN(c3ncc(C(=O)N[C@H]4C(C)(C)[C@H](Oc5ccc(C#N)c(Cl)c5)C4(C)C)cn3)CC2)C2CC2)c(-c2cn(C)c(=O)c3[nH]ccc23)c1` (stereo partly drawn) [Compound I-235], the GI50 (in the assay on VCaP cells; in assay [1]; in the assay on T47D cells; in assay [2]) was less than 500 nM each time.
Consider `Cn1cc(-c2cc(C(C)(C)O)ccc2Oc2ccc(OC3CC4(C3)CC3(CCN(c5ncc(C(=O)N[C@H]6C(C)(C)[C@H](Oc7ccc(C#N)c(Cl)c7)C6(C)C)cn5)CC3)C4)cc2)c2cc[nH]c2c1=O` [Compound I-326], for which the GI50 was less than 500 nM with VCaP cells (Homo sapiens), more than 3000 nM in assay [1], less than 500 nM with T47D cells (Homo sapiens) and less than 500 nM in assay [2].

The GI50 is the concentration at which growth is held to half of that of the control. A low value points to more potent growth inhibition.

The values above are taken from patent US20250388605A1, “HETEROBIFUNCTIONAL COMPOUNDS AND METHODS OF TREATING DISEASE” (Halda Therapeutics OpCo, Inc., priority 2022, published 2025).
